From patent publication US20210254056A1, “IDENTIFICATION AND TARGETED MODULATION OF GENE SIGNALING NETWORKS” (CAMP4 THERAPEUTICS CORPORATION, priority 2017, published 2021)
Like-named read-outs stand apart in the source and are kept apart here.

System: hepatocytes
Experiment: RNA-seq of hepatocytes treated with Phase III failure compounds
Details: for significant modulation of expression of disease genes: q≤0.05, genes in the value or listed in the block; for B2M expression, RNA-seq result: gene B2M; for B9D2 expression, RNA-seq result: gene B9D2; for BAAT expression, RNA-seq result: gene BAAT; for BBOX1 expression, RNA-seq result: gene BBOX1; for BBS10 expression, RNA-seq result: gene BBS10; for BCHE expression, RNA-seq result: gene BCHE; for BCKDHB expression, RNA-seq result: gene BCKDHB; for BCKDK expression, RNA-seq result: gene BCKDK; for BCO1 expression, RNA-seq result: gene BCO1; for BCR expression, RNA-seq result: gene BCR; for BLNK expression, RNA-seq result: gene BLNK; for BLOC1S3 expression, RNA-seq result: gene BLOC1S3; for BMPR1A expression, RNA-seq result: gene BMPR1A; for BRAF expression, RNA-seq result: gene BRAF; for BSCL2 expression, RNA-seq result: gene BSCL2; for BTD expression, RNA-seq result: gene BTD; for C4A expression, RNA-seq result: gene C4A; for C9 expression, RNA-seq result: gene C9; for C10orf10 expression, RNA-seq result: gene C10orf10; for C10orf11 expression, RNA-seq result: gene C10orf11; for C15orf41 expression, RNA-seq result: gene C15orf41; for CA2 expression, RNA-seq result: gene CA2; for CA5A expression, RNA-seq result: gene CA5A; for CA12 expression, RNA-seq result: gene CA12; for CAV1 expression, RNA-seq result: gene CAV1; for CCND1 expression, RNA-seq result: gene CCND1; for CD46 expression, RNA-seq result: gene CD46; for CD81 expression, RNA-seq result: gene CD81; for CD320 expression, RNA-seq result: gene CD320; for CDAN1 expression, RNA-seq result: gene CDAN1; for CDH1 expression, RNA-seq result: gene CDH1; for CEP19 expression, RNA-seq result: gene CEP19; for CEP83 expression, RNA-seq result: gene CEP83; for CEP164 expression, RNA-seq result: gene CEP164; for CEP290 expression, RNA-seq result: gene CEP290; for CFB expression, RNA-seq result: gene CFB; for CFHR2 expression, RNA-seq result: gene CFHR2; for CHRM3 expression, RNA-seq result: gene CHRM3; for CIDEC expression, RNA-seq result: gene CIDEC; for CLDN1 expression, RNA-seq result: gene CLDN1; for COG1 expression, RNA-seq result: gene COG1
Procedure: RNA-seq was performed to determine the effects of the compounds on hepatocytes.
Significance was determined by the criteria of FPKM≥0.5, a log 2(fold-change)≥1, and a […].

Cn1c(COP(=O)(NCCBr)NCCBr)cnc1[N+](=O)[O-] [TH-302 (Evofosfamide), Evofosfamide]
Number (#) of genes having significantly changed expression: 28
significant modulation of expression of disease genes (RNA-seq, hepatocytes): significantly (q≤0.05) modulate expression of the following genes: FAM111B, FGFR2, PKHD1, and RMRP
B2M expression, RNA-seq result (hepatocytes): 0.16
B9D2 expression, RNA-seq result (hepatocytes): −0.2
BAAT expression, RNA-seq result (hepatocytes): 0.12
BBOX1 expression, RNA-seq result (hepatocytes): 0.35
BBS10 expression, RNA-seq result (hepatocytes): 0.24
BCHE expression, RNA-seq result (hepatocytes): −0.07
BCKDHB expression, RNA-seq result (hepatocytes): −0.17
BCKDK expression, RNA-seq result (hepatocytes): 0.04
BCO1 expression, RNA-seq result (hepatocytes): −0.28
BCR expression, RNA-seq result (hepatocytes): −0.01
BLNK expression, RNA-seq result (hepatocytes): −0.2
BLOC1S3 expression, RNA-seq result (hepatocytes): 0.04
BMPR1A expression, RNA-seq result (hepatocytes): −0.05
BRAF expression, RNA-seq result (hepatocytes): −0.01
BSCL2 expression, RNA-seq result (hepatocytes): −0.03
BTD expression, RNA-seq result (hepatocytes): −0.16
C4A expression, RNA-seq result (hepatocytes): −0.36
C9 expression, RNA-seq result (hepatocytes): 0.16
C10orf10 expression, RNA-seq result (hepatocytes): −0.2
C10orf11 expression, RNA-seq result (hepatocytes): −0.71
C15orf41 expression, RNA-seq result (hepatocytes): 0.08
CA2 expression, RNA-seq result (hepatocytes): 0.11
CA5A expression, RNA-seq result (hepatocytes): −0.1
CA12 expression, RNA-seq result (hepatocytes): 0.32
CAV1 expression, RNA-seq result (hepatocytes): 0.13
CCND1 expression, RNA-seq result (hepatocytes): 0.16
CD46 expression, RNA-seq result (hepatocytes): 0.08
CD81 expression, RNA-seq result (hepatocytes): 0.09
CD320 expression, RNA-seq result (hepatocytes): 0.17
CDAN1 expression, RNA-seq result (hepatocytes): 0.11
CDH1 expression, RNA-seq result (hepatocytes): −0.56
CEP19 expression, RNA-seq result (hepatocytes): −0.02
CEP83 expression, RNA-seq result (hepatocytes): −0.06
CEP164 expression, RNA-seq result (hepatocytes): −0.03
CEP290 expression, RNA-seq result (hepatocytes): 0.16
CFB expression, RNA-seq result (hepatocytes): 0.01
CFHR2 expression, RNA-seq result (hepatocytes): 0.13
CHRM3 expression, RNA-seq result (hepatocytes): −0.58
CIDEC expression, RNA-seq result (hepatocytes): −0.06
CLDN1 expression, RNA-seq result (hepatocytes): −0.05
COG1 expression, RNA-seq result (hepatocytes): 0.12

CN(C)[C@@H]1C(O)=C(C(N)=O)C(=O)[C@@]2(O)C(O)=C3C(=O)c4c(O)c(NC(=O)CN5CCCC5)cc(F)c4C[C@H]3C[C@@H]12 [TP-434 (Eravacycline), Eravacycline]
Number (#) of genes having significantly changed expression: 232
significant modulation of expression of disease genes (RNA-seq, hepatocytes): significantly (q≤0.05) modulate expression
B2M expression, RNA-seq result (hepatocytes): 0.56
B9D2 expression, RNA-seq result (hepatocytes): 0.16
BAAT expression, RNA-seq result (hepatocytes): −0.52
BBOX1 expression, RNA-seq result (hepatocytes): −0.06
BBS10 expression, RNA-seq result (hepatocytes): 0.05
BCHE expression, RNA-seq result (hepatocytes): 0.12
BCKDHB expression, RNA-seq result (hepatocytes): 0.04
BCKDK expression, RNA-seq result (hepatocytes): −0.23
BCO1 expression, RNA-seq result (hepatocytes): −0.13
BCR expression, RNA-seq result (hepatocytes): −0.17
BLNK expression, RNA-seq result (hepatocytes): −0.18
BLOC1S3 expression, RNA-seq result (hepatocytes): 0.32
BMPR1A expression, RNA-seq result (hepatocytes): −0.06
BRAF expression, RNA-seq result (hepatocytes): 0.03
BSCL2 expression, RNA-seq result (hepatocytes): 1.5
BTD expression, RNA-seq result (hepatocytes): −0.25
C4A expression, RNA-seq result (hepatocytes): −0.38
C9 expression, RNA-seq result (hepatocytes): 0.21
C10orf10 expression, RNA-seq result (hepatocytes): −0.02
C10orf11 expression, RNA-seq result (hepatocytes): 0.56
C15orf41 expression, RNA-seq result (hepatocytes): 0.12
CA2 expression, RNA-seq result (hepatocytes): 0.71
CA5A expression, RNA-seq result (hepatocytes): 0.32
CA12 expression, RNA-seq result (hepatocytes): 0.2
CAV1 expression, RNA-seq result (hepatocytes): 0.34
CCND1 expression, RNA-seq result (hepatocytes): −0.7
CD46 expression, RNA-seq result (hepatocytes): 0.23
CD81 expression, RNA-seq result (hepatocytes): 0.17
CD320 expression, RNA-seq result (hepatocytes): 0.3
CDAN1 expression, RNA-seq result (hepatocytes): −0.27
CDH1 expression, RNA-seq result (hepatocytes): −0.59
CEP19 expression, RNA-seq result (hepatocytes): 0.1
CEP83 expression, RNA-seq result (hepatocytes): −0.15
CEP164 expression, RNA-seq result (hepatocytes): −0.21
CEP290 expression, RNA-seq result (hepatocytes): 0.55
CFB expression, RNA-seq result (hepatocytes): 0.23
CFHR2 expression, RNA-seq result (hepatocytes): 0.4
CHRM3 expression, RNA-seq result (hepatocytes): −0.27
CIDEC expression, RNA-seq result (hepatocytes): −0.79
CLDN1 expression, RNA-seq result (hepatocytes): 0.09
COG1 expression, RNA-seq result (hepatocytes): −0.37

CO[C@H]1C[C@@H]2CC[C@@H](C)[C@@](O)(O2)C(=O)C(=O)N2CCCC[C@H]2C(=O)O[C@H]([C@H](C)C[C@@H]2CC[C@@H](OC(=O)C(C)(CO)CO)[C@H](OC)C2)CC(=O)[C@H](C)/C=C(\C)[C@@H](O)[C@@H](OC)C(=O)[C@H](C)C[C@H](C)/C=C/C=C/C=C/1C [Temsirolimus]
Number (#) of genes having significantly changed expression (RNA-seq, Phase III failure compounds, hepatocytes, significance: FPKM≥0.5, log 2(fold-change)≥1, q-value≥0.05 (so in the source)): 34
significant modulation of expression of any of the genes analyzed (RNA-seq, p≤0.05, hepatocytes): not observed to significantly modulate expression
effect on disease gene expression (RNA-seq, hepatocytes): no effect on any disease gene
